The values that follow come from ChEMBL document CHEMBL1201862, “PubChem BioAssay data set” (2004).

Active and inactive are the calls of the source. Some results are limits rather than exact numbers.

A word on the AC50: it is the concentration giving half of the maximal activity seen. As a reminder, the IC90 is the point of the concentration-response curve where the effect stands at 90%. Usually EC50 stands for the concentration that produces a half-maximal response. Broadly, the IC50 is the concentration needed to halve the response being measured.

A short description of experiment [1]: cytotoxicity in COV434 cells, dose response, cytotoxicity control for PAX8 inhibitor project, cell-based, plate reader, dry powder, SA7 (AID 743145). The format is functional.
A short description of experiment [2]: PAX5 activity inhibitors, dose response, selectivity assay for PAX8 inhibitor project, cell-based, plate reader, dry powder samples (AID 743047).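 Note: HEK293 cells carrying a Pax5 driven CD19 promoter luciferase reporter; potency of inhibitors that lower reporter luminescence.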 The format is functional.
Experiment [3] is described as follows: PAX2 cell-based inhibition, dose response, selectivity assay for PAX8 inhibitor project, plate reader, dry powder samples (AID 743048).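 Note: HEK293 cells carrying a WT1 promoter luciferase reporter driven by expressed Pax2; potency is for inhibition of Pax2 driven reporter signal.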 The format is functional.
A short description of experiment [4]: NIH:OVCAR-3 ovarian cancer cell cytotoxicity, dose response, PAX8 inhibitor project, plate reader, dry powder samples (AID 743044). The format is functional, cell-based.
A short description of experiment [5]: cytotoxicity in OVCAR8 ovarian cancer cells, dose response, PAX8 project, cell-based, plate reader, dry powder samples (AID 743197). Conditions: OVCAR-8. It counts as functional.
The target of experiment [6] is Paired box protein Pax-8 (Homo sapiens, UniProt Q06710). The experiment can be described thus: inhibitors of PAX8-driven TPO luciferase reporter, dose response, RMG-I cells, cherry-pick (AID 687027).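 Note: luciferase reporter driven by Pax8 target thyroperoxidase promoter measured by SteadyGlo luminescence.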 The format is functional, cell-based. A general note: In a reporter assay the amount or activity of a reporter protein is the signal.
Paired box protein Pax-8, sequence (Q06710 whole entry): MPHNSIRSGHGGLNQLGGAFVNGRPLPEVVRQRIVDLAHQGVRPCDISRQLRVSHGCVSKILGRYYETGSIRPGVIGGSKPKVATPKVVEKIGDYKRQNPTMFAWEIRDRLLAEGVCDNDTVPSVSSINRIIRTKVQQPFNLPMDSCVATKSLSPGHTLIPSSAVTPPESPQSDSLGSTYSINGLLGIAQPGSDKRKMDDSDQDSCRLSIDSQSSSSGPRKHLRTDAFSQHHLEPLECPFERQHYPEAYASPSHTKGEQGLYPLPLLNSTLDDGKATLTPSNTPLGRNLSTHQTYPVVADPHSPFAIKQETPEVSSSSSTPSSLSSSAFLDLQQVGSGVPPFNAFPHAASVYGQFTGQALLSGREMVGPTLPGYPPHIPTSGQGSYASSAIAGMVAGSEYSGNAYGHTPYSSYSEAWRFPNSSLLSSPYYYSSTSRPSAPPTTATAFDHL
A short description of experiment [7]: cytotoxicity in COV362 ovarian cancer cells, dose response, cytotoxicity control for PAX8 inhibitor project, cell-based, plate reader, dry powder, SA12 (AID 743144). The format is functional.
The nature of experiment [8]: cytotoxicity dependent on PAX8, dose response, cell-based, plate reader, dry powder (AID 743049). It counts as functional.
Experiment [9] can be described thus: cytotoxicity in OV-90 ovarian cancer cells, dose response, PAX8 inhibitor project, cell-based, plate reader, dry powder, SA8 (AID 743149). The format is functional.
Experiment [10] can be described thus: HEK293T cell cytotoxicity, dose response, cytotoxicity control, luminescence plate reader, powder samples, set 4 (AID 651863). It counts as functional, cell-based. To be noted: HEK293.
Experiment [11] in a line: HepG2 cell cytotoxicity, dose response, cytotoxicity control, luminescence plate reader, powder samples, set 2 (AID 651860). The format is functional, cell-based.
The nature of experiment [12]: growth inhibition of replicating M. tuberculosis, dose response, counter-screen, dry powder, IC90 (AID 651617). Conditions: Mycobacterium tuberculosis. The format is functional. For orientation: The purpose of a counterscreen is to sort out artefacts and off-target activity.
Experiment [13] in a line: inhibitors of non-replicating M. tuberculosis, dose response, luciferase, dry powder (AID 651620). The format is functional. Conditions: Mycobacterium tuberculosis.
Experiment [14] in a line: inhibitors of non-replicating M. tuberculosis, dose response, luciferase, dry powder (AID 651619). Conditions: Mycobacterium tuberculosis. It counts as functional.
The nature of experiment [15]: NIH-3T3 fibroblast cytotoxicity, dose response, cytotoxicity control, cell-based, fluorescence, Alamar Blue, secondary assay (AID 2327).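 Note: NIH-3T3 mouse fibroblasts cultured with fluconazole at 8 µg/mL.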 The format is functional. For orientation: Alamar Blue is a resazurin reagent that responds to reducing activity.
A short description of experiment [16]: C. albicans growth with fluconazole, confirmation, fluorescence, retest (AID 2467). The format is functional, cell-based.
For experiment [17], the target named is E3 ubiquitin-protein ligase UHRF1 (Homo sapiens, UniProt Q96T88). The experiment can be described thus: Counterscreen for inhibitors of 5-meCpG-binding domain protein 2 (MBD2): TRFRET-based biochemical high throughput dose response assay to identify inhibitors of binding of ubiquitin-like with PHD and ring finger domains 1 (UHRF1) to methylated oligonucleotide.
E3 ubiquitin-protein ligase UHRF1, sequence (Q96T88 whole entry, the tested form may be a part): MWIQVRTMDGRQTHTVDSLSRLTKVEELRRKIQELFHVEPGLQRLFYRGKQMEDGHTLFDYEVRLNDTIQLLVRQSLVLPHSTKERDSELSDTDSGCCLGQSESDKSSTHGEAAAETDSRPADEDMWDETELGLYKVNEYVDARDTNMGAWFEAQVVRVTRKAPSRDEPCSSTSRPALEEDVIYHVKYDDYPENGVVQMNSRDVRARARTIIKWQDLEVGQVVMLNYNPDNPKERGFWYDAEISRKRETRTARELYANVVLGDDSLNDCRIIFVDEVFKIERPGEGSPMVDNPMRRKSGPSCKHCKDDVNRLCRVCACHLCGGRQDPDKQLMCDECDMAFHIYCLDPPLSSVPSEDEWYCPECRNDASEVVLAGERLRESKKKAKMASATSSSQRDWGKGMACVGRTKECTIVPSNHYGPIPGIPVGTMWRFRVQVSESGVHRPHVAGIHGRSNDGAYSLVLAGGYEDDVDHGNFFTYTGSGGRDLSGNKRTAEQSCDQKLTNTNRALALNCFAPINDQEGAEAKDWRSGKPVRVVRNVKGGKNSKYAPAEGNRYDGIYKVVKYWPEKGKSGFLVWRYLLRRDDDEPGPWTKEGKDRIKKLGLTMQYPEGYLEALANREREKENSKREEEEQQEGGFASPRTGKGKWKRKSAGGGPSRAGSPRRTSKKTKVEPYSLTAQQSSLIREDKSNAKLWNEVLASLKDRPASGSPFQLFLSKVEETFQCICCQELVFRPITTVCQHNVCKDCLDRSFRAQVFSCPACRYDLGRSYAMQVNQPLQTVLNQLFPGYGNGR

The target in experiment [18] is NAD-dependent protein deacylase sirtuin-5, mitochondrial (Homo sapiens, UniProt Q9NXA8). The experiment can be described thus: SIRT5 desuccinylase inhibitors, dose response, biochemical, fluorescence imaging, cherry-pick, set 5 (AID 720591).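 Note: desuccinylation of succinyl peptide AMC substrate read as fluorescence after trypsin release; potency of inhibitors that lower fluorescence and may act on trypsin instead.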
NAD-dependent protein deacylase sirtuin-5, mitochondrial, sequence (Q9NXA8 whole entry): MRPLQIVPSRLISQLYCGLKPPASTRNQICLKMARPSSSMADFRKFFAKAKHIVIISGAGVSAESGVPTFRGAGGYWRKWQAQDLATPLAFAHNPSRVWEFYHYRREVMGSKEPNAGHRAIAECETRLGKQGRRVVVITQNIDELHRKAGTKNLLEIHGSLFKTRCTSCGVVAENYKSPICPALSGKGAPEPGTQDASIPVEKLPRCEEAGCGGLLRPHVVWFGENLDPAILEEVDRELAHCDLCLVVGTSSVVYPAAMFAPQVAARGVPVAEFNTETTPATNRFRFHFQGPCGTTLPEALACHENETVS
Experiment [19] can be described thus: control 3'UTR Renilla luciferase suppression, dose response, counter-screen for Shn3 inhibitor project, cell-based, Clone20-Shn3RL, cherry-picked (AID 624133). The format is functional.
A short description of experiment [20]: reduction of Shn3 3'UTR firefly luciferase signal, dose response, Schnurri-3 inhibitor project, cell-based, Clone20 osteoblasts, cherry-pick, set 2 (AID 720490).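 Note: actives lower the luminescence signal as inhibitors.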 It counts as functional.
The nature of experiment [21]: Shn3 3'UTR reporter inhibitors, dose response, cell-based, Clone20 osteoblasts, firefly luciferase, cherry-picked (AID 624132).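 Note: firefly luciferase luminescence from reporter carrying the Shn3 3'UTR in osteoblasts.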 It counts as functional.

Regarding `C[C@H](CO)N1C[C@H](C)[C@@H](CN(C)Cc2ccc(C(F)(F)F)cc2)Oc2ccc(NS(=O)(=O)c3ccccc3)cc2CC1=O`, the AC50 is 46.2 µM (active) in [1]; 23 µM (active) in experiment [2]; 21 µM (active) in experiment [3]; 51.5 µM (active) in [4]; > 70 µM (inactive) in [5]; 10.1 µM (active) in [6]. Also, the AC50 is > 70 µM (inactive) in experiment [7], 53.2 µM (active) in [8] and 54 µM (active) in experiment [9].

Consider `Cc1ccc(S(=O)(=O)NC2=C/C(=N\[C@@H](C)C(=O)OC(C)(C)C)C(=O)c3ccccc32)c(C)c1`, for which the AC50 in experiment [10] was 16.3 µM (active); in experiment [11], 43 µM (active).

As for `Fc1ccc(Cn2cc(CSc3nnc(C4CCCC4)o3)nn2)cc1`, the 90% effect concentration (IC90) in [12] was 250 µM (active); in experiment [13], 2 µM (active); in [14], 2 µM (active).

Take `Cc1ccc(-c2cc(-c3ccccc3)cc(-c3ccccc3)[n+]2-c2ccccc2C(=O)O)cc1.[O-][Cl+3]([O-])([O-])[O-]`: the EC50 in experiment [15] was > 160 µM (inactive); in experiment [16], 3.23 µM (inconclusive). The IC50 in [17] is 18.9 µM (inactive).

Regarding `CC1=Nc2cc(C(=O)O)ccc2Sc2ccc(Br)cc21`, the AC50 in experiment [18] is 18.8 µM (active).

Consider `O=C(COC(=O)c1[nH]nc2ccccc12)Nc1ccc(S(=O)(=O)N2CCCC2)cc1`, for which the half-maximal activity concentration (AC50) was 36.1 µM (active) in experiment [19], 31.8 µM (active) in [20] and 5.33 µM (active) in experiment [21].
